The source of these data is paper PMC5862592, “CDK8/19 inhibition induces premature G1/S transition and ATR-dependent cell death in prostate cancer cells” (Oncotarget, 2018).

Read-outs that look alike come from different tables or passages of the source.

Experiment in all cases: biochemical
Design in all cases: KINOMEscan active site-directed competition binding assay (DiscoveRx), 456 kinases, per cent of control at 300 nM
Details in all cases: read-out: Percent of Control (%)

Assay [1] deals with FES (Homo sapiens, UniProt P07332). The essentials: (§1)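 Each compound is tested at 300 nmol/L against a panel of 456 kinases. Interaction is quantified by competition for the kinase active site.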
Assay [2] concerns the target T1, PFCDPK1(P.falciparum) (Plasmodium falciparum, UniProt P62344).
T1 construct: gene CDPK1
The gist of the method: as §1

The target in assay [3] is RET (Homo sapiens, UniProt P07949). The essentials:
as §1

Assay [4] addresses T2, PCTK3 (Homo sapiens, UniProt Q07002).
T2 construct: gene CDK18
The essentials: as §1

Assay [5] has as its target CAMK2D (Homo sapiens, UniProt Q13557). The essentials: as §1
In assay [6] the target is KIT(V559D,V654A) (Homo sapiens, UniProt P10721, V559D/V654A). The gist of the method: as §1
The target of assay [7] is PRKD2 (Homo sapiens, UniProt Q9BZL6). The essentials:
as §1

For assay [8], the target named is T3, YSK1 (Homo sapiens, UniProt O00506).
T3 construct: gene STK25
The essentials: as §1

Assay [9] concerns the target MARK1 (Homo sapiens, UniProt Q9P0L2). The gist of the method: as §1
Assay [10] addresses PIK3CA(Q546K) (Homo sapiens, UniProt P42336, Q546K). The gist of the method: as §1
The target of assay [11] is T4, PIP5K2C (Homo sapiens, UniProt Q8TBX8).
T4 construct: gene PIP4K2C
The gist of the method:
as §1

Assay [12] concerns the target EPHA4 (Homo sapiens, UniProt P54764). The essentials: as §1
Assay [13] concerns the target EPHB1 (Homo sapiens, UniProt P54762). The essentials: as §1
Assay [14] has as its target FLT3(ITD) (Homo sapiens, UniProt P36888, ITD). The gist of the method: as §1
Assay [15] has as its target TIE1 (Homo sapiens, UniProt P35590). The essentials: as §1
Assay [16] concerns the target T5, SGK (Homo sapiens, UniProt O00141).
T5 construct: gene SGK1
The gist of the method:
as §1

Assay [17] has as its target T6, PRKR (Homo sapiens, UniProt P19525).
T6 construct: gene EIF2AK2
The essentials: as §1

For assay [18], the target named is CSF1R-autoinhibited (Homo sapiens, UniProt P07333). The gist of the method: as §1
The target in assay [19] is DDR2 (Homo sapiens, UniProt Q16832). The essentials:
as §1

Assay [20] addresses KIT(L576P) (Homo sapiens, UniProt P10721, L576P). The gist of the method: as §1
Assay [21] addresses MAK (Homo sapiens, UniProt P20794). The essentials: as §1
Assay [22] deals with T7, MLK3 (Homo sapiens, UniProt Q16584).
T7 construct: gene MAP3K11
The essentials:
as §1

Chain of RET (P07949 whole entry): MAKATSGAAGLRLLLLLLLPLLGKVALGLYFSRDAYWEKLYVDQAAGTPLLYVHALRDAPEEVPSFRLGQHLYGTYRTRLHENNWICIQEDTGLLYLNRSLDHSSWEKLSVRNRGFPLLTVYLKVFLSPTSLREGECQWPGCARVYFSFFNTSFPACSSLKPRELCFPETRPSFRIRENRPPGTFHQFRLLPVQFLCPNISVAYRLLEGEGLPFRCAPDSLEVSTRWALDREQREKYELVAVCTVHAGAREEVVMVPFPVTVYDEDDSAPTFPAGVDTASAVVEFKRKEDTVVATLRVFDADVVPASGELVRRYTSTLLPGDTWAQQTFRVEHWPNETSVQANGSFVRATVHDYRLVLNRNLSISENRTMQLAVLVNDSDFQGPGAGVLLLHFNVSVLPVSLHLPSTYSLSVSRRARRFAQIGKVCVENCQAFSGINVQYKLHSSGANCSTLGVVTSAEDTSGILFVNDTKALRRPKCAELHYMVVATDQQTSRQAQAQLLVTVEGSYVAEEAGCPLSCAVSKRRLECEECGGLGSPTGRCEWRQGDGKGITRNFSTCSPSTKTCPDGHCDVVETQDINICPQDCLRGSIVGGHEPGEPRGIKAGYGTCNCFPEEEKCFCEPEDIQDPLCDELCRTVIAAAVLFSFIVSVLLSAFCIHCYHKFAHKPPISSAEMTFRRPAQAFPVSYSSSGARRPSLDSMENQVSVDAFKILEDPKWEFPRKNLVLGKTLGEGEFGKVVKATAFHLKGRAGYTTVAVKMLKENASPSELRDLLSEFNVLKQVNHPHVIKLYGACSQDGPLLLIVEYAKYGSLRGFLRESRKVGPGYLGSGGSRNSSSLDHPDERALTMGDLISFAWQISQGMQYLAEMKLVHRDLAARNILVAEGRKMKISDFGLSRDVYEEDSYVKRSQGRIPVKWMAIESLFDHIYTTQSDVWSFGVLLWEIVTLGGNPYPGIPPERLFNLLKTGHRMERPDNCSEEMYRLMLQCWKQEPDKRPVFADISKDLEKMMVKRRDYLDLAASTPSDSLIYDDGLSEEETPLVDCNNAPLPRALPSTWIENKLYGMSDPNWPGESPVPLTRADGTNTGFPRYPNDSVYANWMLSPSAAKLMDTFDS
Chain of EPHB1 (P54762 whole entry): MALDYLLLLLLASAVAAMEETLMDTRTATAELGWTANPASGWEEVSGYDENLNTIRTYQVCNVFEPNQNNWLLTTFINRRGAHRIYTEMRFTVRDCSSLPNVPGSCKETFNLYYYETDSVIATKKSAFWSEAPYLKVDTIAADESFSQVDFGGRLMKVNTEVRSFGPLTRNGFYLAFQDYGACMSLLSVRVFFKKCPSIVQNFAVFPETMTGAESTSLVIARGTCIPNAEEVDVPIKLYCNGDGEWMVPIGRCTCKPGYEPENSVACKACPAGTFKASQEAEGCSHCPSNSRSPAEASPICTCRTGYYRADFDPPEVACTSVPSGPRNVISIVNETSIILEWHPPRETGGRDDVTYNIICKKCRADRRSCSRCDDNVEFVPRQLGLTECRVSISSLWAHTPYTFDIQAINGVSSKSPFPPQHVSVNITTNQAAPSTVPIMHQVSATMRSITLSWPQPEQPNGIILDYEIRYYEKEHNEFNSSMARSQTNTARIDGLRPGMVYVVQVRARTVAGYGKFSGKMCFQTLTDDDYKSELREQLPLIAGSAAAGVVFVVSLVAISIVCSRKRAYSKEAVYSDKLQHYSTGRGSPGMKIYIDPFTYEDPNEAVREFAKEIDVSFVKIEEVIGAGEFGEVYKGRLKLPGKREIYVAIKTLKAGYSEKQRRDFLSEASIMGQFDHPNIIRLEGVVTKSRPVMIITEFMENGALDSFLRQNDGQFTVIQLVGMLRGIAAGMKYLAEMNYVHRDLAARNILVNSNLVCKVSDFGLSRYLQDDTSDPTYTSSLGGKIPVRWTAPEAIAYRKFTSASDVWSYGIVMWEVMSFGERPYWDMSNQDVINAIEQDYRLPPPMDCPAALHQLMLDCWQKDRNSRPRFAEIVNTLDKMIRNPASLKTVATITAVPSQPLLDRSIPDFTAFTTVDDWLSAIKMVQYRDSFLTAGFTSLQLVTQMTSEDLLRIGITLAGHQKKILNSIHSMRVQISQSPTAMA
Chain of FES (P07332 whole entry): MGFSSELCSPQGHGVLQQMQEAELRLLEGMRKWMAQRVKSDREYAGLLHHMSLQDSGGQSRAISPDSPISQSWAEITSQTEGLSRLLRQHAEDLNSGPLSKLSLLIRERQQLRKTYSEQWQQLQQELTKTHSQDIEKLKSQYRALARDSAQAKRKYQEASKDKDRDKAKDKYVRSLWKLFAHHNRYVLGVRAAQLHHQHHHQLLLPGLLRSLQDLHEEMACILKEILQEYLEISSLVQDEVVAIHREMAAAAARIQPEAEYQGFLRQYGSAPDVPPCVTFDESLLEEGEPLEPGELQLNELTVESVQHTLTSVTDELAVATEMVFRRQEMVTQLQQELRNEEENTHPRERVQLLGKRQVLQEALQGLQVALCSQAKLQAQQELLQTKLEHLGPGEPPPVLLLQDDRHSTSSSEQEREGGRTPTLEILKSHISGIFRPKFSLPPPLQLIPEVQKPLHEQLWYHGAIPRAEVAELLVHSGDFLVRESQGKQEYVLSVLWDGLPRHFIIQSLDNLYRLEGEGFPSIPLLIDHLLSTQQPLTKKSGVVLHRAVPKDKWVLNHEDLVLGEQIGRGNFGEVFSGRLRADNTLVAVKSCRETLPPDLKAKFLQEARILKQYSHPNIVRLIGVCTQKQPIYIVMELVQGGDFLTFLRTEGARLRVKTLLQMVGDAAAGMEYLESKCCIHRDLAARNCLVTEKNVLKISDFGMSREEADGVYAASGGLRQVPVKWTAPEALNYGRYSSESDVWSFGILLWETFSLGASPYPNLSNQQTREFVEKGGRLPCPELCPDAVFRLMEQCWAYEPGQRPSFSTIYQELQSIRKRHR
Chain of FLT3(ITD) (P36888 564-993, change not shown): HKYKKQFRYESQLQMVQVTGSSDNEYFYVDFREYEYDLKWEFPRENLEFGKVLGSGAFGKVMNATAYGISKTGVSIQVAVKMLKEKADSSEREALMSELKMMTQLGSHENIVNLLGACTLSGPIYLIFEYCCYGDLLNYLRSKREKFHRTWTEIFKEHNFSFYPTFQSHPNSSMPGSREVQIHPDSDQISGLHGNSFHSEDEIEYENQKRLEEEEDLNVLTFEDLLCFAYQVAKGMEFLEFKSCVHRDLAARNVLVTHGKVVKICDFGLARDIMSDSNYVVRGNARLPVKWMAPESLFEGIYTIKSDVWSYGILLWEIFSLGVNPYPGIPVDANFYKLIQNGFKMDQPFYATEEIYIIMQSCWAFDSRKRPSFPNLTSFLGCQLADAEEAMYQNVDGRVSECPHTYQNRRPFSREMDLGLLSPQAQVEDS
Chain of KIT(L576P) (P10721 whole entry L576P): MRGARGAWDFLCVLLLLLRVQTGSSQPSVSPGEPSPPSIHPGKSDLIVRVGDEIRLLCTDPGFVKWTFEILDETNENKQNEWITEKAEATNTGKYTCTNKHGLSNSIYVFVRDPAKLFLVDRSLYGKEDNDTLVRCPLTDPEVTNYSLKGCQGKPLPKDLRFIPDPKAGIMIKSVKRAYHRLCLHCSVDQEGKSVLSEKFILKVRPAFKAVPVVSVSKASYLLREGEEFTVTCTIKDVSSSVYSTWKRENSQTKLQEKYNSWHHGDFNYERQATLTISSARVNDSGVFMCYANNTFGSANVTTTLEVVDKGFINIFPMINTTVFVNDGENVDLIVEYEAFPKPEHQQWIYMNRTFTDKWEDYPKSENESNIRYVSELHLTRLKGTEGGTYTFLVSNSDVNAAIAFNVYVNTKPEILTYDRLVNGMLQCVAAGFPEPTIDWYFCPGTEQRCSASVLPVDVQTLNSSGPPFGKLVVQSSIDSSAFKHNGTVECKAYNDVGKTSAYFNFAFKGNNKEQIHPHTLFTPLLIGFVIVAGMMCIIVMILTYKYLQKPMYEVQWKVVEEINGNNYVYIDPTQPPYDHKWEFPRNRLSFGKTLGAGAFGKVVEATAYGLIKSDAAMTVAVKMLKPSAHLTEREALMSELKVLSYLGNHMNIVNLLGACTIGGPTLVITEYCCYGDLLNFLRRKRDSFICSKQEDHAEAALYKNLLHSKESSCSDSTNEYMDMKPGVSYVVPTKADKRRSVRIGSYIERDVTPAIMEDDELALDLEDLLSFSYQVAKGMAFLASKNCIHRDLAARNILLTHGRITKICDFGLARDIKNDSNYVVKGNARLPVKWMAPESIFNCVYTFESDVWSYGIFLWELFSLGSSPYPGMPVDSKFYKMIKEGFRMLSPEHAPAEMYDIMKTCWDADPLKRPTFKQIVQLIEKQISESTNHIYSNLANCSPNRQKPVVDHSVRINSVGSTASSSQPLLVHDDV
T6 sequence (P19525 whole entry): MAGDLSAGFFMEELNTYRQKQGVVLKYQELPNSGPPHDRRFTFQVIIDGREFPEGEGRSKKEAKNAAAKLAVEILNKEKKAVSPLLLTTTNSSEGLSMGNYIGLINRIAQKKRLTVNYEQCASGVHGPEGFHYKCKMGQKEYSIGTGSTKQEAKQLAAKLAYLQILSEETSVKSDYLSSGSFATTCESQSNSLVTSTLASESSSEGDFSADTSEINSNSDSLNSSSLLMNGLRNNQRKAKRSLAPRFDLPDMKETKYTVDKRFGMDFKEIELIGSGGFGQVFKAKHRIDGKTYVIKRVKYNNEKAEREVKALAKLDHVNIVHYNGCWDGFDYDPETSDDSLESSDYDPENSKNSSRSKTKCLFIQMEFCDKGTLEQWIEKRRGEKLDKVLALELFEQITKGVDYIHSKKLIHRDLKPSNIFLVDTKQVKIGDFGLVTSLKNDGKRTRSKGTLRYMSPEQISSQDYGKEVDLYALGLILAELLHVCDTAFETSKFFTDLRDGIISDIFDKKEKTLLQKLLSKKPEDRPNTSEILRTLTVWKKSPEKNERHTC
Chain of KIT(V559D,V654A) (P10721 whole entry V559D/V654A): as the sequence (P10721 whole entry L576P) above, with V559D, P576L, V654A counted along it

In the case of `O=C(/C=C/c1cnccc1-c1ccc(F)cc1)Nc1ccc(CCc2nnco2)cc1` [T-418, (2E)-3-(4-(4-fluorophenyl)pyridin-3-yl)-N-(4-(2-(1,3,4-oxadiazol-2-yl)ethyl)phenyl)acrylamide], the remaining binding at 0.3 µM in [1] (sheet T-418) was determined as 83%; in assay [2] (sheet T-418) it was 100%; in assay [3] (sheet T-418), 63%; in assay [4] (sheet T-418), 100%; in assay [5] (sheet T-418) it was 100%; in [6] (sheet T-418), 96%. The remaining binding at 0.3 µM in assay [7] (sheet T-418) was determined as 76%; in [8] (sheet T-418), 97%; in assay [9] (sheet T-418) it was 100%; in [10] (sheet T-418), 100%; in assay [11] (sheet T-418), 74%; in assay [12] (sheet T-418) it was 100%. Further, the remaining binding at 0.3 µM in assay [13] (sheet T-418) is 86%; in assay [14] (sheet T-418) it was 100%; in assay [15] (sheet T-418) it was 100%; in assay [16] (sheet T-418), 88%; in assay [17] (sheet T-418) it was 100%; in [18] (sheet T-418), 86%. The remaining binding at 0.3 µM in [19] (sheet T-418) was found to be 100%; in [20] (sheet T-418), 100%; in [21] (sheet T-418), 100%; in [22] (sheet T-418) it was 94%.

Regarding `Cc1ncccc1Oc1sc(C(N)=O)c2c1-c1c(cnn1C)CC2` [T-474, 1-methyl-8-((2-methylpyridin-3-yl)oxy)-4,5-dihydro-1H-thieno[3,4-g]indazole-6-carboxamide], the remaining binding at 0.3 µM in assay [1], in assay [2], in assay [3], in assay [4], in [5] and in assay [6] was 100% throughout. In addition, the remaining binding at 0.3 µM in assay [7] was found to be 100%; in assay [8], 94%; in assay [9], 81%; in assay [10], 100%; in assay [11] it was 74%; in assay [12], 100%. The remaining binding at 0.3 µM in [13] was found to be 82%; in assay [14] it was 100%; in [15] it was 100%; in assay [16] it was 100%; in [17], 100%; in assay [18], 100%. Also, the remaining binding at 0.3 µM in [19] came to 100%; in assay [20], 100%; in assay [21], 98%; in assay [22], 97%.
